Data from patent US20110065896A1, “POLYETHER POLYOL DENDRON CONJUGATES WITH EFFECTOR MOLECULES FOR BIOLOGICAL TARGETING” (MIVENION GMBH, priority 2008, published 2011).

What was measured:
[1] = Fluorescence quantum yield of dendron dye in comparison to precursor dye; type: physicochemical
Description: Fluorescence quantum yield of title compound of example 4a in comparison to precursor dye dendron bis-1,1′-(4-sulfobutyl)indotricarbocyanine-5,5′-dicarboxylic acid, sodium salt

[2] = Investigation of solubilities in PBS by observation of precipitates; type: physicochemical; details: conjugate solutions in PBS obtained in examples 10b and 10c, on storage
Procedure: Conjugation with IgG antibody: To a solution of 1 mg antibody (IgG from bovine serum; Sigma, >95%, salt free, powder) in […] of phosphate-buffered saline (PBS, pH 7.4) is given […] (32 μL) of a solution of 0.5 mg of N-hydroxysuccinimidyl ester of example 9 in 0.1 mL water. The mixture is shaken at 25° C. for 24 h in the dark. Purification is achieved by filtration via a NAP10 column (Pharmacia) using PBS as eluent. As control conjugate, pyropheophorbide a —NHS-ester is used for conjugation with IgG giving IgG-pyropheo conjugate.
Conjugation with bovine serum albumine (BSA): To a solution of 1 mg BSA (Sigma, fraction V, >98%, powder) in […] of phosphate-buffered saline (PBS, pH 7.4) is given […] (70 μL) of a solution of 0.5 mg of N-hydroxysuccinimidyl ester of example 9 in 0.1 mL water. The mixture is shaken at 25° C. for 24 h in the dark. Purification is achieved by filtration via a NAP 10 column (Pharmacia) using PBS as eluent.
Investigation of solubilities in PBS by observation of precipitates from the solutions obtained in examples 10b and 10c: […]

Compound	Fluorescence quantum yield ([1]; MeOH)	Fluorescence quantum yield ([1]; PBS)	Solubility in PBS by observation of precipitates [2]
CC1(C)C(=CC=CC=CC=CC2=[N+](CCCCS(=O)(=O)[O-])c3ccc(C(=O)O)cc3C2(C)C)N(CCCCS(=O)(=O)[O-])c2ccc(C(=O)O)cc21.[Na+] [Precursor dye, bis-1,1′-(4-sulfobutyl)indotricarbocyanine-5,5′-dicarboxylic acid, sodium salt]	0.14	0.07	
BSA-pyropheo: control conjugate: pyropheophorbide a NHS-ester conjugated with BSA			immediate precipates
